Legend:
[1] = test system: endolymphatic duct structures / inner ear of pigmented guinea pigs; experiment: Intratympanic administration of latanoprost to guinea pigs: tolerability, brain stem audiometry and morphology of the endolymphatic duct structures; assay type: in vivo, guinea pig
Protocol: Four pigmented guinea pigs of either sex weighing around 200-300 grams were anaesthetised with pentobarbital for intratympanic (into the middle ear) administration of latanoprost, and for brain stem audiometric measurements. The audiometric measurements were carried out at 8, 16 and 32 kHz frequency before and after the administration of latanoprost (58 μg/ml; a total of 250 μl/injection corresponding to about 14 μg latanoprost) and the vehicle. Latanoprost was administered once daily for three days into one ear, while the other ear received a similar injection of the vehicle only, and on the fourth day the animals were euthanatized with an overdose of the anaesthetic. The middle ears were dissected and the mucus membranes were inspected. Thereafter the inner ear was removed and the labyrinth was perfusion fixated through the oval and round windows with a 3% buffered glutaraldehyde solution. The tissues were then immersion fixated for about 24 hours in the same solution, and decalcified in 0.1 M sodium EDTA solution for about 2 weeks. The tissues were thereafter prepared according to routine techniques for light microscopy, and ultrathin sections of Epon-embedded tissue pieces were cut for transmission electron microscopy.
Most importantly, in several animals clear-cut changes in the morphology around the endolymphatic duct were detected. […] These findings were corroborated by 3 persons. […] Similar effects have previously been seen in the ciliary muscle of the eye after topical treatment with latanoprost and other prostaglandins (Lütjen-Drecoll and Tamm, 1989; Lindsey et al., 1998; Stjernschantz et al., 1998).

[2] = test system: patients suffering from unilateral Meniere's disease; experiment: Local (intratympanic) administration of latanoprost to two patients suffering from Meniere's disease; assay type: in vivo, human; set-up: key to Tinnitus (grade): 0 = none; 1 = mild; 2 = moderate; 3 = marked; details: for Tinnitus (grade): After (7 or 13 days after start of treatment), before: 3; for Acoustic emissions (%) 1 kHz / Acoustic emissions (%) 2 kHz / Acoustic emissions (%) 3 kHz / Acoustic emissions (%) 4 kHz / Acoustic emissions (%) 5 kHz / Acoustic emissions (%) Total reproducibility: After; for Acoustic emissions (%) 1 kHz / Acoustic emissions (%) 2 kHz / Acoustic emissions (%) 3 kHz / Acoustic emissions (%) 4 kHz / Acoustic emissions (%) 5 kHz: before: 0; for Subjective hearing ability: after treatment
Protocol: […] About 0.3-0.4 ml of a sterile Xalatan® (0.005% latanoprost) solution was administered by intratympanic installation in close apposition to the round window after appropriate local anaesthesia. The patients were thereafter asked to lie on the side with the treated ear up for about 30 min to enhance the penetration of latanoprost into the internal ear. The patients had at least 40 decibel decrease in the audiogram at 0.5, 1 and 2 kHz frequency, at baseline before treatment with latanoprost. In addition they suffered from episodes of vertigo and nausea in combination with tinnitus. Audiograms, and cochlear emissions were recorded before the treatment and at the 7th or 13th day after the start of the treatment, and information about the subjective symptoms were collected.

[3] = test system: patients suffering from unilateral Meniere's disease; experiment: Randomised, double-masked, placebo-controlled crossover clinical trial with latanoprost in Meniere's disease; assay type: in vivo, human; details: for vertigo, visual analogue scale: decreasing values reflecting improvement
Protocol: During the priority year, a randomised, double-masked, placebo-controlled clinical trial was performed by the inventors of the present patent application. Nine patients (5 males and 4 females; age 39-65 years) suffering from unilateral Meniere's disease were treated daily for three consecutive days with latanoprost (around 50 micrograms/ml) or placebo adopting a crossover design. Accordingly, each patient was treated with both latanoprost and placebo in random order. Each treatment period lasted for 3 days, and after that the patients were examined at days 5 and 15 from the start of the treatment. Approximately 1 month elapsed between the two treatment periods (washout period). The treatment was given by intratympanic injection (around 0.2-0.8 ml) into the middle ear essentially as described above. Several parameters/symptoms were registered and followed, in particular the following: Pure tone average (decibels), discrimination value (%), tinnitus loudness (decibels), and by using visual analogue scale technique; subjective hearing ability, tinnitus and vertigo. The patients recorded the three last mentioned parameters daily, and the means over the periods 2-5 days and 2-15 days after initiation of treatment with latanoprost and placebo were computed.
Such improvement was never observed during placebo treatment. At day 15 the mean discrimination value after latanoprost treatment was 68.2±7.2%, while it was 52.9±1.5% after placebo treatment, the difference of 29% being statistically significant at the p<0.05 level. Likewise, a statistically significant (p<0.01) improvement in pure tone average value at day 15 was found after latanoprost treatment in comparison to placebo, the values being 58.9±3.6 and 64.3±3.5 decibels, respectively (a lower value representing improvement). Finally, at least seven out of the nine patients experienced less vertigo both during the immediate period (days 2-5) after initiation of the latanoprost treatment as well as during a longer period (days 2-15) after the initiation of the latanoprost treatment. The values on the visual analogue scale (in mm; decreasing values reflecting improvement, i.e. less sensation of vertigo) were as follows: Days 2-5 latanoprost treatment: 22.4±9.1, and placebo treatment: 33.5±10.8 (p<0.05); Days 2-15 latanoprost treatment: 24.2±10.0 and placebo treatment: 34.2±11.4 (p<0.05).

[4] = test system: patients with Meniere's disease; details: two patients with Meniere's disease, with furosemide; cited from earlier work
[5] = test system: vasculature in the cochlea; details: in vivo; cited from earlier work
[6] = two patients, after administration
[7] = visual analogue scale, latanoprost vs placebo

Q: With `CC(C)OC(=O)CCC/C=C\C[C@@H]1[C@@H](CC[C@@H](O)CCc2ccccc2)[C@H](O)C[C@@H]1O` [latanoprost, 13,14-dihydro-17-phenyl-18,19,20-trinor-PGF2α-isopropyl ester] as the compound, how does the brain stem audiograms ([1]; guinea pig, 8, 16 and 32 kHz, before and after intratympanic administration) read?
A: Its brain stem audiograms is “no changes that could be attributed to the treatment”.

Q: What about the “morphology around the endolymphatic duct” value ([1]; guinea pig, in several animals, zone around fibroblasts in loose connective tissue surrounding the duct) of the same compound?
A: Its value is “reduced density of the extracellular matrix”.

Q: And the “morphological changes in the cochlea including the organ of Corti with the hair cells” value ([1]; guinea pig, intratympanic, about 14 μg once daily for three days)?
A: The value was “no morphological changes”.

Q: And the “inflammatory changes in the mucous membranes of the middle ear or in the tympanic membrane” value ([1]; guinea pig, intratympanic, about 14 μg once daily for three days, examined day 4)?
A: The value was “No inflammatory changes”.

Q: And the tolerability ([1]; guinea pig, intratympanic, once daily for three days)?
A: Its tolerability is “well tolerated”.

Q: And the “Tinnitus (grade)” value ([2]; patient one)?
A: The value was 1.

Q: What about the “Acoustic emissions (%) 1 kHz” value ([2]; patient one) of the same compound?
A: The value was 45%.

Q: And the “Acoustic emissions (%) 2 kHz” value ([2]; patient one)?
A: Its value is 0.

Q: And the “Acoustic emissions (%) 3 kHz” value ([2]; patient one)?
A: Its value is 42%.

Q: And the “Acoustic emissions (%) 4 kHz” value ([2]; patient one)?
A: The value was 0.

Q: And the “Acoustic emissions (%) 5 kHz” value ([2]; patient one)?
A: Its value is 0.

Q: And the “Acoustic emissions (%) Total reproducibility” value ([2]; patient one, before: 5)?
A: Its value is 37%.

Q: And the Subjective hearing ability ([2]; patient one)?
A: The Subjective hearing ability was “Improved”.

Q: And the “Tinnitus (grade)” value ([2]; patient two)?
A: The value was 2.

Q: And the “Acoustic emissions (%) 1 kHz” value ([2]; patient two)?
A: The value was 0%.

Q: And the “Acoustic emissions (%) 2 kHz” value ([2]; patient two)?
A: The value was 57%.

Q: What about the “Acoustic emissions (%) 3 kHz” value ([2]; patient two) of the same compound?
A: Its value is 0%.

Q: And the “Acoustic emissions (%) 4 kHz” value ([2]; patient two)?
A: Its value is 0%.

Q: What about the “Acoustic emissions (%) 5 kHz” value ([2]; patient two) of the same compound?
A: The value was 0%.

Q: And the “Acoustic emissions (%) Total reproducibility” value ([2]; patient two, before: 10)?
A: Its value is 37%.

Q: And the Subjective hearing ability ([2]; patient two)?
A: The Subjective hearing ability was “Improved”.

Q: And the audiograms [2, 6]?
A: The audiograms was “no significant change”.

Q: And the cochlear emissions [2, 6]?
A: Its cochlear emissions is “significantly improved”.

Q: And the “patients' condition with respect to the tinnitus and hearing ability” value [2, 6]?
A: The value was “marked improvement”.

Q: What about the “vertigo, visual analogue scale” value ([3]; Days 2-5, placebo 33.5±10.8, p<0.05) of the same compound?
A: The value was 22.4±9.1 mm.

Q: And the “vertigo, visual analogue scale” value ([3]; Days 2-15, placebo 34.2±11.4, p<0.05)?
A: The value was 24.2±10.0 mm.

Q: What about the “patients (out of nine) who experienced less vertigo” value ([3]; both days 2-5 and days 2-15 after initiation of treatment) of the same compound?
A: The value was “at least seven”.

Q: And the cochlear emissions ([3]; clinical trial)?
A: Its cochlear emissions is “variable results”.

Q: And the “difference in mean discrimination value versus placebo” value ([3]; day 15, p<0.05)?
A: Its value is 29%.

Q: And the mean discrimination value ([3]; day 15, placebo 52.9±1.5%, p<0.05)?
A: Its mean discrimination value is 68.2±7.2%.

Q: And the “pure tone average value” ([3]; day 15, placebo 64.3±3.5, p<0.01, lower value representing improvement)?
A: The value was 58.9±3.6 decibels.

Q: What about the “improvement in discrimination value” ([3]; in three of the nine patients, after latanoprost treatment) of the same compound?
A: Its value is 25-50%.

Q: And the tinnitus loudness ([3]; latanoprost vs placebo)?
A: Its tinnitus loudness is “No statistically significant change”.

Q: What about the Subjective hearing ability [3, 7] of the same compound?
A: The Subjective hearing ability was “No statistically significant change”.

Q: And the “subjective experience of tinnitus” value [3, 7]?
A: Its value is “No statistically significant change”.

Q: With `COc1ccc2c(c1)c(CC(=O)O)c(C)n2C(=O)c1ccc(Cl)cc1` [indomethacin] as the compound, how does the “effect on the discrimination score” value [4] read?
A: Its value is “block the effect of furosemide”.

Q: With `CCCCC[C@H](O)/C=C/[C@@H]1[C@@H](C/C=C\CCCC(=O)O)[C@@H](O)C[C@H]1O` [PGF2α] as the compound, how does the “effect on the vasculature in the cochlea” value [5] read?
A: Its value is “no effect”.

Source: patent US7498360B2, “Method and compositions for local treatment of Meniere's disease, tinnitus and/or hearing loss” (Synphora AB, priority 2001, dated 2009)
